# Reference: US8409581B2, “Compounds for treating amyloidoses” (Affiris AG, priority 2008, dated 2013)
# Ends that are not written are not given here.
# Tested on: monoclonal antibody MV-002 binding to the original epitope
# Assay: In vitro inhibition assay (ELISA)
# Design: species or system mice
# Conditions: OD at 5 ug peptide compared to original peptide; MV-002
# Protocol: 2. In Vitro Inhibition Assay (ELISA)
# Different amounts of peptides (concentrations ranging from 5 μg to 0.03 μg; serial dilutions), derived from Phage Display were incubated with the monoclonal antibody that was used for the screening procedure. Peptides diminishing subsequent binding of the antibody to the original epitope coated on ELISA plates were considered as inhibiting in this assay.
row,Substance,Inhibition Capacity (competition code)
1,"GEIKFDHC [p4698, MV-002 mimotope peptide]","2 (strong inhibition (as original epitope; OD of peptide below 2, 3 times of original peptide))"
2,"GEILFGMC [p4689, MV-002 mimotope peptide]","1 (Weaker than original epitope (OD of peptide below 4, 6 times of original peptide))"
3,"GEIQFGAC [p4699, MV-002 mimotope peptide]","1 (Weaker than original epitope (OD of peptide below 4, 6 times of original peptide))"
4,"GELWFPC [p4673, MV-002 mimotope peptide]","1 (Weaker than original epitope (OD of peptide below 4, 6 times of original peptide))"
5,"HQKMIFC [p4794, MV-002 mimotope peptide]","1 (Weaker than original epitope (OD of peptide below 4, 6 times of original peptide))"
6,"NDAKIVFC [p4667, MV-002 mimotope peptide]","1 (Weaker than original epitope (OD of peptide below 4, 6 times of original peptide))"
7,"SHQRLWFC [p4674, MV-002 mimotope peptide]","1 (Weaker than original epitope (OD of peptide below 4, 6 times of original peptide))"

# Tested on: monoclonal antibody MV-002
# Assay: In vitro binding assay (ELISA) of mimotopes to parental antibody
# Design: species or system mice
# Conditions: peptide coupled to BSA bound to ELISA plates (1 μM); parental antibody MV-002
# Protocol: 1. In Vitro Binding Assay (ELISA)
# Peptides derived from Phage Display as well as variants thereof were coupled to BSA and bound to ELISA plates (1 μM; as indicated in the respective figures) and subsequently incubated with the monoclonal antibody that was used for the screening procedure to analyse binding capacity of identified peptides.
row,Substance,"Binding Capacity (binding code; OD halfmax 1:X, dilution factor of the parental AB)"
1,"AIPLFVMC [p4682, MV-002 mimotope peptide]",1 (weak binding :<40000)
2,"Ac-GEIYFERC [p4804, MV-002 mimotope peptide, N-terminally acetylated]",2 (medium binding :40000-320000)
3,"CGEIYFER [p4807, MV-002 mimotope peptide]",1 (weak binding :<40000)
4,"GDLKFPLC [p4683, MV-002 mimotope peptide]",3 (strong binding :>320000)
5,"GEIQFGAC [p4699, MV-002 mimotope peptide]",3 (strong binding :>320000)
6,"GEIRFALC [p4678, MV-002 mimotope peptide]",3 (strong binding :>320000)
7,"GEIRFELC [p4796, MV-002 mimotope peptide]",2 (medium binding :40000-320000)
8,"GELFFEKC [p4795, MV-002 mimotope peptide]",2 (medium binding :40000-320000)
9,"GELWFPC [p4673, MV-002 mimotope peptide]",3 (strong binding :>320000)
10,"GELYFRAC [p4677, MV-002 mimotope peptide]",3 (strong binding :>320000)
11,"GEMQFFIC [p4676, MV-002 mimotope peptide]",3 (strong binding :>320000)
12,"GEMWFALC [p4671, MV-002 mimotope peptide]",3 (strong binding :>320000)
13,"GMIVFPHC [p4679, MV-002 mimotope peptide]",3 (strong binding :>320000)
14,"GQIIFQSC [p4668, MV-002 mimotope peptide]",2 (medium binding :40000-320000)
15,"GQIMFPRC [p4686, MV-002 mimotope peptide]",3 (strong binding :>320000)
16,"GQIRFDHC [p4669, MV-002 mimotope peptide]",3 (strong binding :>320000)
17,"GQIWFISC [p4666, MV-002 mimotope peptide]",1 (weak binding :<40000)
18,"GSLFFWPC [p4688, MV-002 mimotope peptide]",2 (medium binding :40000-320000)
19,"GTIFFRDC [p4692, MV-002 mimotope peptide]",1 (weak binding :<40000)
20,"HMRMYFEC [p4687, MV-002 mimotope peptide]",3 (strong binding :>320000)
21,"HQKMIFC [p4794, MV-002 mimotope peptide]",2 (medium binding :40000-320000)
22,"KLPLFVMC [p4691, MV-002 mimotope peptide]",1 (weak binding :<40000)
23,"NDAKIVFC [p4667, MV-002 mimotope peptide]",3 (strong binding :>320000)
24,"SGEYVFHC [p4404, MV-002 mimotope peptide]",1 (weak binding :<40000)
25,"SGQIWFRC [p4414, MV-002 mimotope peptide]",1 (weak binding :<40000)
26,"SHQRLWFC [p4674, MV-002 mimotope peptide]",3 (strong binding :>320000)
27,"THQRLWFC [p4693, MV-002 mimotope peptide]",3 (strong binding :>320000)

# Further lines, results first:
row,"Binding Capacity (binding code; OD halfmax 1:X, dilution factor of the parental AB)",Substance
1,1 (weak binding :<40000),"AGEIYFERC [p4806, MV-002 mimotope peptide]"
2,3 (strong binding :>320000),"GEIKFDHC [p4698, MV-002 mimotope peptide]"
3,3 (strong binding :>320000),"GEILFGMC [p4689, MV-002 mimotope peptide]"
4,3 (strong binding :>320000),"GEIRFGSC [p4696, MV-002 mimotope peptide]"
5,3 (strong binding :>320000),"GELFFPKC [p4685, MV-002 mimotope peptide]"
6,3 (strong binding :>320000),"GELQFPPC [p4672, MV-002 mimotope peptide]"
7,3 (strong binding :>320000),"GQIKFAQC [p4694, MV-002 mimotope peptide]"
8,3 (strong binding :>320000),"GQILFPVC [p4684, MV-002 mimotope peptide]"
9,3 (strong binding :>320000),"GQIQFPLC [p4697, MV-002 mimotope peptide]"
10,3 (strong binding :>320000),"GQLKFPFC [p4690, MV-002 mimotope peptide]"
11,2 (medium binding :40000-320000),"GTLIFHHC [p4695, MV-002 mimotope peptide]"
12,1 (weak binding :<40000),"QLPLFVLC [p4700, MV-002 mimotope peptide]"
13,1 (weak binding :<40000),"SGEIHFNC [p4415, MV-002 mimotope peptide]"
14,1 (weak binding :<40000),"SGEIYFERC [p4805, MV-002 mimotope peptide]"
15,1 (weak binding :<40000),"SGQLKFPC [p4413, MV-002 mimotope peptide]"
